Measured values published in patent US7314879B2, “Melanocortin receptor agonists” (Eli Lilly and Company, priority 2002, dated 2008).

How the values were obtained:
MC4 [1] = molecular target: T1, MC4 (Homo sapiens, UniProt P32245); assay: Functional agonist assay in HEK 293 cells stably expressing melanocortin receptor (luciferase reporter / whole cell cAMP accumulation); assay type: cell-based; settings: for EC50: agonist potency, concentration giving half maximal stimulation; for % Rel. Eff.: relative efficacy compared to NDP-alpha-MSH defined as 100% agonist
T1 construct: expressed in transfected cells; host or cells: HEK 293
Description: Functional cell based assays are developed to discriminate agonists and antagonists.
Agonist Assay: HEK 293 cells stably expressing a human melanocortin receptor (see e.g., Yang, et al., Mol-Endocrinol., 11(3): 274-80, 1997) are dissociated from tissue culture flasks using a trypsin/EDTA solution (0.25%; Life Technologies, Rockville, Md.). Cells are collected by centrifugation and resuspended in DMEM (Life Technologies, Rockville, Md.) supplemented with 1% L-glutamine and 0.5% fetal bovine serum. Cells are counted and diluted to 4.5×10^5/ml.
A compound of formula I is diluted in dimethylsulfoxide (DMSO) (3×10^−5 to 3×10^−10 M final concentrations) and 0.05 volume of compound solution is added to 0.95 volumes of cell suspension; the final DMSO concentration is 0.5%. After incubation at 37° C./5% CO2 for 5 hours, cells are lysed by addition of luciferin solution (50 mM Tris, 1 mM MgCl2, 0.2% Triton-X100, 5 mM DTT, 500 micromolar Coenzyme A, 150 micromolar ATP, and 440 micromolar luciferin) to quantify the activity of the reporter gene luciferase, an indirect measurement of intracellular cAMP production.
Luciferase activity is measured from the cell lysate using a Wallac Victor 2 luminometer. The amount of lumen production which results from a compound of formula I is compared to that amount of lumens produced in response to NDP-alpha-MSH, defined as a 100% agonist, to obtain the relative efficacy of a compound. The EC50 is defined as the compound concentration that results in half maximal stimulation, when compared to its own maximal level of stimulation.
In the agonist assay, compounds are prepared as 10 mM and NDP-aMSH (control) as 33.3 μM stock solutions in 100% DMSO. These are serially diluted in 100% DMSO. The compound plate is further diluted 1:200 in compound dilution buffer (HBSS-092, 1 mM Ascorbic Acid, 1 mM IBMX, 0.6% DMSO, 0.1% BSA). The final concentration range being 10 μM-100 pM for compound and 33.33 nM-0.3 pM for control in 0.5% DMSO. Transfer 20 μl from this plate into four PET 96-well plates (all assays are performed in duplicate for each receptor).
HEK 293 cells stably transfected with the MC3R and MC4R were grown in DMEM containing 10% FBS and 1% Antibiotic/Antimycotic Solution. On the day of the assay the cells were dislodged with enzyme free cell dissociation solution and resuspended in cell buffer (HBSS-092, 0.1% BSA, 10 mM HEPES) at 1×e6 cells/ml. Add 40 μl of cells/well to the PET 96-well plates containing 20 ul diluted compound and control. Incubate @ 37° C. in a waterbath for 20 minutes. Stop the assay by adding 50 μl Quench Buffer (50 mM Na Acetate, 0.25% Triton X-100).
Radioligand binding assays were run in SPA buffer (50 mM Sodium Acetate, 0.1% BSA). The beads, antibody and radioligand were diluted in SPA buffer to provide sufficient volume for each 96-well plate. To each quenched assay well was added 100 ul cocktail containing 33.33 ul of beads, 33.33 μl antibody and 33.33 μl ^125 I-cAMP. This was based on a final concentration of 6.3 mg/ml beads, 0.65% anti-goat antibody and 61 pM of ^125I-cAMP (containing 25000-30000 CPM) in a final assay volume of 210 μl. The plates were counted in a Wallac MicroBeta counter after a 12-hour incubation.
The data was converted to pmoles cAMP using a standard curve assayed under the same conditions. The data was analyzed using Activity Base software to generate agonist potencies (EC50) and percent relative efficacy data to NDP-aMSH.

MC4 [2] = molecular target: T1, MC4; assay: Radioligand binding assay: competitive inhibition of 125I-NDP-alpha-MSH binding to membranes of stably transfected HEK 293 cells; settings: 125I-NDP-alpha-MSH competition; Ki from IC50 by Cheng-Prusoff equation
Experimental: The radioligand binding assay is used to identify competitive inhibitors of ^125I-NDP-alpha-MSH binding to cloned human MCRs using membranes from stably transfected human embryonic kidney (HEK) 293 cells.
HEK 293 cells transfected with human or rat melanocortinin receptors are grown either as adherent monolayers or suspension culture. Monolayer cells are grown in roller bottle cultures at 37° C. and 5% CO2/air atmosphere in a 3:1 mixture of Dulbecco's modified Eagle medium (DMEM) and Ham's F12 containing 25 mM L-glucose, 100 units/ml penicillin G, 100 microgram/ml streptomyocin, 250 nanogram/ml amphoterin B, 300 microgram/ml genticin and supplemented with 5% fetal bovine serum. Monolayer cells are adapted to suspension culture (Berg et al., Biotechniques Vol. 14, No.6, 1993) and are grown in spinner or shaker flasks (37° C. and 7.5% CO2/air overlay) in a modified DME/F12 medium containing 0.1 mM CaCl2, 2% equine serum and 100 microgram/ml sodium heparin (to prevent cell-cell aggregation). Cells are harvested by centrifugation, washed in PBS, and pellets are stored frozen at −80° C. until membrane preparations.
The cell pellets are resuspended in 10 volumes of membrane preparation buffer (i.e., 1 g pellet to 10 ml buffer) having the following composition: 50 mM Tris pH 7.5 @ 4° C., 250 mM sucrose, 1 mM MgCl2, Complete® EDTA-free protease inhibitor tablet (Boehringer Mannheim), and 24 micrograms/ml DNase I (Sigma, St. Louis, Mo.). The cells are homogenized with a motor-driven dounce using 20 strokes, and the homogenate is centrifuged at 38,000×g at 4° C. for 40 minutes. […]
Solutions of a compound of formula I (300 picomolar to 30 micromolar) or unlabelled NDP-alpha-MSH (1 picomolar to 100 nanomolar) are added to 150 microliters of membrane binding buffer to yield final concentrations (listed in parantheses). […] The radioactivity is quantified in a Wallac Trilux Microplate Scintillation counter. […]

T1 sequence (P32245 whole entry): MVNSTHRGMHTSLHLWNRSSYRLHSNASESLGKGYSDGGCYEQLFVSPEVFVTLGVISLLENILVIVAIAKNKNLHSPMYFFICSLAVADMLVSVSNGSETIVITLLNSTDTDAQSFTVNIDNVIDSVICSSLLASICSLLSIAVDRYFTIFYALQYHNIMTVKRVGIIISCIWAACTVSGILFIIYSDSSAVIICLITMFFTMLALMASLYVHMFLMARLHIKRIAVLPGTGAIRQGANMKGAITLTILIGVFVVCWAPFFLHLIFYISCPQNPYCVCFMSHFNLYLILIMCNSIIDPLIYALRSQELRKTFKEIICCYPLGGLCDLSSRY

Row | EC50 (MC4 [1]) | % Rel. Eff. (MC4 [1]) | Ki (MC4 [2]) | SMILES
1 | 18.9 nM | 114% | 24.3 nM | CN1CCC(Cc2ccccc2F)(N2CCN(C(=O)[C@@H](Cc3ccc(Cl)cc3)NC(=O)CC3NCc4ccccc43)CC2)CC1 (stereo partly drawn) [Example 4I]
2 | 25.4 nM | 112% | 6.5 nM | CN1CCC(CC2CCCCC2)(N2CCN(C(=O)[C@@H](Cc3ccc(Cl)cc3)NC(=O)CC3NCc4ccccc43)CC2)CC1 (stereo partly drawn) [Example 10I]
3 | 99.8 nM | 124% | 28.8 nM | CC(C)CC1(N2CCN(C(=O)[C@@H](Cc3ccc(Cl)cc3)NC(=O)CC3NCc4ccccc43)CC2)CCCC1 (stereo partly drawn) [Example 8I]
